Measured values taken from US20190248834A1, “ENDOMORPHIN-2, TETRAPEPTIDE DERIVATIVES THEREOF, AND USES THEREOF” (priority 2016, published 2019).
No end group written: not given here.

Assays:
[1] = system: extruded intervertebral cervical disc, pain and paresthesia; assay: Example 40: painful extruded intervertebral cervical disc, topical; type: in vivo, human
Description: Previous therapy undergone by the subject included epidural injections of corticosteroids.

[2] = system: extruded intervertebral cervical disc, pain and paresthesia; assay: Example 40: painful extruded intervertebral cervical disc, subcutaneous injection; type: in vivo, human
Description: Previous therapy undergone by the subject included epidural injections of corticosteroids. Within the past several months, the pain had intensified, along with a substantial degree of paresthesia and numbness of the fingers of both hands. […] Relief of pain and paresthesia lasted for 1-2 days. Thereafter, the pain and paresthesia returned.
About 1 week later, pain and paresthesia were negligible, but returned within 2-3 weeks. Such injections were repeated 3 times at approximately monthly intervals with the same beneficial results. However, pain and paresthesia were not cured, and recurring within 2-3 weeks.

[3] = system: rat rostral ventrolateral medulla neurons; settings: in vitro; cited from earlier work
[4] = rats injected at 5-10 μg; cited from earlier work
[5] = system: sore site on the left lower gum; assay: Example 38: analgesic effect on gum pain due to pressure from denture; type: in vivo, human
Experimental: […]. […] The dentures were removed and re-inserted 15 hours later. Within about 1 hour, soreness of the same area began to return and application of the above solution composition was repeated in the same way as the day before. All soreness again was alleviated within 5-10 seconds. The relief lasted again for about 7 hours.

mu receptors = mu receptors (Mus musculus, UniProt P42866); settings: mouse brain; cited from earlier work
Sequence of mu receptors (P42866 whole entry): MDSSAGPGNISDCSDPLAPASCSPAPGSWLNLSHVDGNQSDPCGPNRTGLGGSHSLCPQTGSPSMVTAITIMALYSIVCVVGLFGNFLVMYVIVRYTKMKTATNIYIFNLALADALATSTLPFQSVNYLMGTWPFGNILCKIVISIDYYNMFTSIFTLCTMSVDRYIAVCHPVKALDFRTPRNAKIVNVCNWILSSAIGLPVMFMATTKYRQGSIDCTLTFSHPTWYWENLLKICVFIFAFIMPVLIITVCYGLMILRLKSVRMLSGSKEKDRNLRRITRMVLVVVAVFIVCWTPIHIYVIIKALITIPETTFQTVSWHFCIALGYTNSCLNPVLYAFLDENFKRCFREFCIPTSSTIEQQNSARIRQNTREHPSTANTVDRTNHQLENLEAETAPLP

adjuvant arthritis = settings: intraperitoneal injection; cited from earlier work
[6] = system: pain caused by needling or pinching; assay: Example 91: experimentally induced skin pain, intradermal and subcutaneous injection; type: in vivo, human; settings: 0.1% sterile aqueous solution pH 6.2, intradermally 0.1 ml and subcutaneously 0.2 ml
[7] = 0.5% (w/v) in WEP442, gauze under plastic film

For Tyr-Pro-Phe-Phe-NH2 (YPFF-NH2), the “duration of relief of pain and paresthesia” value [1, 7] was 1 to 2 days, the “time to relief of symptoms” value [1, 7] was 8 h and the relief of symptoms ([1]; 0.5% (w/v) in WEP442, saturated gauze under plastic film over cervical vertebra 7) was “complete relief of symptoms”. The pain and paresthesia ([2]; 3 mg/ml sterile aqueous solution, subcutaneous, next day) was “diminished substantially”, the “time to return of pain and paresthesia” value ([2]; 3 mg/ml subcutaneous) was 2-3 weeks and the pain and paresthesia ([2]; 3 mg/ml subcutaneous, repeated after 24 hours, about 1 week later) was “negligible”. For the same substance, the “spontaneous discharge of the medullary neurons” value [3] was “significantly inhibited”, the analgesic effects [4] was “exhibited analgesic effects” and the duration of relief ([5]; 1% (w/v) in WEP442) was “about 7 hours”. The time to relief ([5]; 1% (w/v) in WEP442) was 5 to 10 s, the relief of soreness ([5]; 1% (w/v) in WEP442, applied to the sore gum area) was “all soreness was gone” and the “affinity for mu receptors” value (mu receptors) was “very high affinity”. For the same substance, the “effect on edema in rat paw assay” value (adjuvant arthritis) was “did not have any effect that significantly differed from the effect of the control group” and the “effect on pain caused by needling or pinching of injected sites” value [6] was “did not prevent pain”.
